Ki data for 14 compounds are collected here from patent US20100035873A1 (Pfizer Inc, priority 2008, published 2010).

T1 sequence (P41145 whole entry): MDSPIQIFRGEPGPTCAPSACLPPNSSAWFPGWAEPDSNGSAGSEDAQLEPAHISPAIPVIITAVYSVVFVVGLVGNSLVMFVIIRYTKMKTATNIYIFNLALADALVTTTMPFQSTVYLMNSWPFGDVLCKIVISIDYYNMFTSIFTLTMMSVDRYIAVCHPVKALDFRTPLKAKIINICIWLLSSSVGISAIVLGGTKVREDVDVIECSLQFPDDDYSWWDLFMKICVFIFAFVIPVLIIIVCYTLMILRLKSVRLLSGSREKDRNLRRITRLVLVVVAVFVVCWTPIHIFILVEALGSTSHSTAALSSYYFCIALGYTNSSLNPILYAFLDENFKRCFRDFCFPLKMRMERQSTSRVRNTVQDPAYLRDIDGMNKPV

The assay has as its target T1, human kappa opioid receptor (Homo sapiens, UniProt P41145).
T1 construct: expressed in transfected cells; host or cells: CHO cells
In words: Binding assay, [3H]diprenorphine displacement on membranes from CHO cells (kappa assay). As to conditions: membranes from CHO cells expressing human kappa opioid receptor, ranges given when more than one data point. As to the method:
Binding assays on membranes from CHO cells expressing either human kappa, mu or delta opioid receptors were performed according to standard procedures. Briefly, frozen cell paste (70-80-mgs per 96 well plate) is homogenized in 50 mM Tris HCl buffer (pH 7.4 @ 4 degrees C.) containing 2.0 mM MgCl2 using a Polytron and spun in a centrifuge at 40,000 g for ten minutes. The final pellet is resuspended in assay buffer (50 mM Tris HCl buffer (pH 7.4) containing 1 mM EDTA, 5 mM MgCl2). Incubations were initiated by the addition of tissue to 96-well plates containing test drugs and 0.4-1 nM [3H]diprenorphine in a final volume of 250 ul). Non-specific binding was determined by radioligand binding in the presence of a saturating concentration of naltrexone (10 uM). After one hour incubation period at room temperature, assay samples were rapidly filtered through Whatman GF/B filters and rinsed with ice-cold 50 mM Tris buffer (pH 7.4). Membrane bound [3H]diprenorphine levels were determined by liquid scintillation counting of the filters in BetaScint. […] Ki values were calculated according to the Cheng Prusoff equation, Ki=IC50/(1+(L/Kd)), where L is the concentration of the radioligand used in the experiment and the Kd value is the dissociation constant for the radioligand (determined previously by saturation analysis).
In turn, `O=S(=O)(c1ccccc1-c1ccc(CNC2C[C@H]3CC[C@@H]2C3)cc1)N1CCCC1` (stereo partly drawn) [Example 4a, (1R,4S)-Bicyclo[2.2.1]hept-2-yl-[2′-(pyrrolidine-1-sulfonyl)-biphenyl-4-ylmethyl]-amine] had a Ki of 0.58 to 0.66 nM.
For the compound `CC1(C)CCCN(Cc2ccc(-c3ccccc3S(=O)(=O)N3CCCC3)cc2)C1` [Example 4e, 3,3-Dimethyl-1-[2′-(pyrrolidine-1-sulfonyl)-biphenyl-4-ylmethyl]-piperidine], the Ki lay within 5.03 to 6.34 nM.
As for `O=S(=O)(c1ccccc1-c1ccc(CNC2CCOC2)cc1)N1CCCC1` (centres unmarked) [Example 4i, [2′-(Pyrrolidine-1-sulfonyl)-biphenyl-4-ylmethyl]-(tetrahydro-furan-3-yl)-amine], the Ki was in the range of 6.59 to 13 nM.
The compound `CC(C)CNCc1ccc(-c2ccccc2S(=O)(=O)N2CCC[C@H]2C)cc1` [Example 4j, Isobutyl-[2′-((R)-2-methyl-pyrrolidine-1-sulfonyl)-biphenyl-4-ylmethyl]-amine] gave a Ki of 0.9 to 2.61 nM.
Compound `C[C@@H]1COCCN1S(=O)(=O)c1ccccc1-c1ccc(CNCCC(C)(C)C)cc1` [Example 4k, (3,3-Dimethyl-butyl)-[2′-((R)-3-methyl-morpholine-4-sulfonyl)-biphenyl-4-ylmethyl]-amine] had a Ki of 1.19 to 2.34 nM.
On to `O=S(=O)(c1ccccc1-c1ccc(CN2C[C@H]3CCC[C@@H]2C3)c(F)c1)N1CCCC1` [Example 4m, (1S,5R)-6-[3-Fluoro-2′-(pyrrolidine-1-sulfonyl)-biphenyl-4-ylmethyl]-6-aza-bicyclo[3.2.1]octane], for which the Ki lay in the range of 1.41 to 6.84 nM.
`C[C@@H]1COCCN1S(=O)(=O)c1ccccc1-c1ccc(CNCCC(C)(C)C)c(F)c1` [Example 4o]: the Ki lay within 2.11 to 5.08 nM.
The compound `C[C@@H]1COCCN1S(=O)(=O)c1ccccc1-c1ccc(CNC2CC3CCC2C3)c(F)c1` (stereo partly drawn) [Example 4p, Bicyclo[2.2.1]hept-2-yl-[3-fluoro-2′-((R)-3-methyl-morpholine-4-sulfonyl)-biphenyl-4-ylmethyl]-amine] yielded a Ki of 2.68 to 6.78 nM.
With `CC(C)CNCc1ccc(-c2ccccc2S(=O)(=O)N2CCC[C@H]2C)cc1F` [Example 4r, [3-Fluoro-2′-((R)-2-methyl-pyrrolidine-1-sulfonyl)-biphenyl-4-ylmethyl]-isobutyl-amine], the Ki was 3.46 to 8.28 nM.
Compound `O=S(=O)(c1ncccc1-c1ccc(CNC2CC3CCC2C3)cc1)N1CCCC1` [Example 4t, (5S,6R)-Bicyclo[2.2.1]hept-2-yl-{4-[2-(pyrrolidine-1-sulfonyl)-pyridin-3-yl]-benzyl}-amine] gave a Ki of 5.76 nM.
The value for `CC(C)CNCc1ccc(-c2ccccc2S(=O)(=O)N(C)C(C)C)cc1` [Example 4v, 4′-(Isobutylamino-methyl)-biphenyl-2-sulfonic acid isopropyl-methyl-amide] was 6.13 nM; that for `CC(C)(C)CCNCc1ccc(-c2ncccc2S(=O)(=O)N2CCCC2)cc1` [Example 4w, (3,3-Dimethyl-butyl)-{4-[3-(pyrrolidine-1-sulfonyl)-pyridin-2-yl]-benzyl}-amine] was 10.3 nM.
With `O=S(=O)(c1cccnc1-c1ccc(CNC2C[C@@H]3CC[C@H]2C3)cc1)N1CCCC1` (stereo partly drawn) [Example 4x, (1S,4R)-Bicyclo[2.2.1]hept-2-yl-{4-[3-(pyrrolidine-1-sulfonyl)-pyridin-2-yl]-benzyl}-amine], the Ki was 12.3 nM.
In the case of `COc1cc(-c2ccccc2S(=O)(=O)N2CCCC2)ccc1CNCC(C)C` [Example 4y, Isobutyl-[3-methoxy-2′-(pyrrolidine-1-sulfonyl)-biphenyl-4-ylmethyl]-amine] it was 12.5 to 24.8 nM.
